Tested on: 253994-281-T-J1-PDC KRAS-mutant spheroids with HUVEC/MSC, viability
Experiment: Anticancer human tumor 253994-281-T-J1-PDC patient-derived colorectal carcinoma cell line growth inhibition [KRAS2]
Conditions: for IC50: curve of first compound; for viability, T/C: stronger effect = lower value
Method in brief: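 Combination screen of spheroid viability in tumor-cell co-cultures with endothelial (HUVEC) and mesenchymal stem cell stroma. Each agent was tested in half-log dilutions, topping at clinical Cmax or at 10 microM without a known Cmax.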

[1] = second compound 0.1 µM, first compound 0.000316 µM
[2] = second compound 0.1 µM, first compound 0.001 µM
[3] = second compound 0.1 µM, first compound 0.00316 µM
[4] = second compound 0.1 µM, first compound 0.01 µM
[5] = second compound 0.1 µM, first compound 0.0316 µM
[6] = second compound 0.316 µM, first compound 0.000316 µM
[7] = second compound 0.316 µM, first compound 0.001 µM
[8] = second compound 0.316 µM, first compound 0.00316 µM
[9] = second compound 0.316 µM, first compound 0.01 µM
[10] = second compound 0.316 µM, first compound 0.0316 µM
[11] = second compound 1 µM, first compound 0.000316 µM
[12] = second compound 1 µM, first compound 0.001 µM
[13] = second compound 1 µM, first compound 0.00316 µM
[14] = second compound 1 µM, first compound 0.01 µM
[15] = second compound 1 µM, first compound 0.0316 µM
[16] = second compound 3.16 µM, first compound 0.000316 µM
[17] = second compound 3.16 µM, first compound 0.001 µM
[18] = second compound 3.16 µM, first compound 0.00316 µM
[19] = second compound 3.16 µM, first compound 0.01 µM
[20] = second compound 3.16 µM, first compound 0.0316 µM
[21] = second compound 10 µM, first compound 0.000316 µM
[22] = second compound 10 µM, first compound 0.001 µM
[23] = second compound 10 µM, first compound 0.00316 µM
[24] = second compound 10 µM, first compound 0.01 µM
[25] = second compound 10 µM, first compound 0.0316 µM
[26] = second compound 0.1 µM, first compound 0.1 µM
[27] = second compound 0.316 µM, first compound 0.1 µM
[28] = second compound 1 µM, first compound 0.1 µM
[29] = second compound 3.16 µM, first compound 0.1 µM
[30] = second compound 10 µM, first compound 0.1 µM
[31] = second compound 0.1 µM, first compound 0.316 µM
[32] = second compound 0.1 µM, first compound 1 µM
[33] = second compound 0.1 µM, first compound 3.16 µM
[34] = second compound 0.1 µM, first compound 10 µM
[35] = second compound 0.316 µM, first compound 0.316 µM
[36] = second compound 0.316 µM, first compound 1 µM
[37] = second compound 0.316 µM, first compound 3.16 µM
[38] = second compound 0.316 µM, first compound 10 µM
[39] = second compound 1 µM, first compound 0.316 µM
[40] = second compound 1 µM, first compound 1 µM
[41] = second compound 1 µM, first compound 3.16 µM
[42] = second compound 1 µM, first compound 10 µM
[43] = second compound 3.16 µM, first compound 0.316 µM
[44] = second compound 3.16 µM, first compound 1 µM
[45] = second compound 3.16 µM, first compound 3.16 µM
[46] = second compound 3.16 µM, first compound 10 µM
[47] = second compound 10 µM, first compound 0.316 µM
[48] = second compound 10 µM, first compound 1 µM
[49] = second compound 10 µM, first compound 3.16 µM
[50] = second compound 10 µM, first compound 10 µM
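Note: spheroids exposed to agents for seven days before readout.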
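Throughout, for viability, T/C: percent of DMSO vehicle control viability.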

## CC(=O)Nc1cccc(-n2c(=O)n(C3CC3)c(=O)c3c(Nc4ccc(I)cc4F)n(C)c(=O)c(C)c32)c1 + CNCc1ccccc1-c1csc(C(C)Nc2nc(C)nc3cc(OC)c(OC)cc23)c1
Second compound 0.1 µM
  IC50: 0.649 nM
Second compound 0.316 µM
  IC50: 0.415 nM
Second compound 1 µM
  IC50: 0.205 nM
Second compound 3.16 µM
  IC50: < 0.1 nM
Second compound 10 µM
  IC50: < 0.1 nM
Second compound 0.1 µM, first compound 0.0001 µM
  viability, T/C: 81.3%
[1]
  viability, T/C: 81.5%
[2]
  viability, T/C: 31.4%
[3]
  viability, T/C: 19%
[4]
  viability, T/C: 10.6%
[5]
  viability, T/C: 5.26%
Second compound 0.316 µM, first compound 0.0001 µM
  viability, T/C: 80.2%
[6]
  viability, T/C: 57.2%
[7]
  viability, T/C: 28.7%
[8]
  viability, T/C: 17.2%
[9]
  viability, T/C: 10.9%
[10]
  viability, T/C: 4.68%
Second compound 1 µM, first compound 0.0001 µM
  viability, T/C: 67.4%
[11]
  viability, T/C: 39.9%
[12]
  viability, T/C: 16.3%
[13]
  viability, T/C: 10.7%
[14]
  viability, T/C: 7.62%
[15]
  viability, T/C: 3.86%
Second compound 3.16 µM, first compound 0.0001 µM
  viability, T/C: 5.81%
[16]
  viability, T/C: 1.42%
[17]
  viability, T/C: 0.92%
[18]
  viability, T/C: 0.18%
[19]
  viability, T/C: 0.16%
[20]
  viability, T/C: 0.34%
Second compound 10 µM, first compound 0.0001 µM
  viability, T/C: 0.16%
[21]
  viability, T/C: 0.15%
[22]
  viability, T/C: 0.14%
[23]
  viability, T/C: 0.18%
[24]
  viability, T/C: 0.12%
[25]
  viability, T/C: 0.21%

## CC(C)n1nc(-c2ccc3oc(N)nc3c2)c2c(N)ncnc21 + CNCc1ccccc1-c1csc(C(C)Nc2nc(C)nc3cc(OC)c(OC)cc23)c1
Second compound 0.1 µM
  IC50: > 100 nM
Second compound 0.316 µM
  IC50: > 100 nM
Second compound 1 µM
  IC50: > 100 nM
Second compound 3.16 µM
  IC50: 0.316 nM
Second compound 10 µM
  IC50: < 0.316 nM
[1]
  viability, T/C: 96.7%
[2]
  viability, T/C: 86.8%
[3]
  viability, T/C: 74.5%
[4]
  viability, T/C: 75.8%
[5]
  viability, T/C: 79.7%
[26]
  viability, T/C: 50.8%
[6]
  viability, T/C: 91%
[7]
  viability, T/C: 87.5%
[8]
  viability, T/C: 82.7%
[9]
  viability, T/C: 73.2%
[10]
  viability, T/C: 78.1%
[27]
  viability, T/C: 57%
[11]
  viability, T/C: 93.3%
[12]
  viability, T/C: 78%
[13]
  viability, T/C: 79.3%
[14]
  viability, T/C: 76.8%
[15]
  viability, T/C: 73.3%
[28]
  viability, T/C: 51%
[16]
  viability, T/C: 37.9%
[17]
  viability, T/C: 45.2%
[18]
  viability, T/C: 56.9%
[19]
  viability, T/C: 9.64%
[20]
  viability, T/C: 42.3%
[29]
  viability, T/C: 28.2%
[21]
  viability, T/C: 0.12%
[22]
  viability, T/C: 0.13%
[23]
  viability, T/C: 0.13%
[24]
  viability, T/C: 0.11%
[25]
  viability, T/C: 0.13%
[30]
  viability, T/C: 0.18%

## COc1cc(Nc2ncc3c(n2)-c2ccc(Cl)cc2C(c2c(F)cccc2OC)=NC3)ccc1C(=O)O + CNCc1ccccc1-c1csc(C(C)Nc2nc(C)nc3cc(OC)c(OC)cc23)c1
Second compound 0.1 µM
  IC50: 39.5 nM
Second compound 0.316 µM
  IC50: < 31.6 nM
Second compound 1 µM
  IC50: < 31.6 nM
Second compound 3.16 µM
  IC50: < 31.6 nM
Second compound 10 µM
  IC50: < 31.6 nM
[5]
  viability, T/C: 54.1%
[26]
  viability, T/C: 28.8%
[31]
  viability, T/C: 25.6%
[32]
  viability, T/C: 31.4%
[33]
  viability, T/C: 30.5%
[34]
  viability, T/C: 45%
[10]
  viability, T/C: 49.7%
[27]
  viability, T/C: 31.7%
[35]
  viability, T/C: 28.5%
[36]
  viability, T/C: 30.3%
[37]
  viability, T/C: 39.5%
[38]
  viability, T/C: 33.5%
[15]
  viability, T/C: 39.1%
[28]
  viability, T/C: 25.6%
[39]
  viability, T/C: 25.1%
[40]
  viability, T/C: 30%
[41]
  viability, T/C: 26.2%
[42]
  viability, T/C: 30.9%
[20]
  viability, T/C: 9.35%
[29]
  viability, T/C: 1.45%
[43]
  viability, T/C: 1.32%
[44]
  viability, T/C: 0.29%
[45]
  viability, T/C: 4.67%
[46]
  viability, T/C: 15.5%
[25]
  viability, T/C: 0.14%
[30]
  viability, T/C: 0.15%
[47]
  viability, T/C: 0.15%
[48]
  viability, T/C: 0.14%
[49]
  viability, T/C: 0.15%
[50]
  viability, T/C: 0.18%

## COc1cc2nccc(Oc3ccc(NC(=O)C4(C(=O)Nc5ccc(F)cc5)CC4)cc3)c2cc1OC + CNCc1ccccc1-c1csc(C(C)Nc2nc(C)nc3cc(OC)c(OC)cc23)c1
Second compound 0.1 µM
  IC50: > 10000 nM
Second compound 0.316 µM
  IC50: 5300 nM
Second compound 1 µM
  IC50: 3470 nM
Second compound 3.16 µM
  IC50: < 31.6 nM
Second compound 10 µM
  IC50: < 31.6 nM
[5]
  viability, T/C: 99.4%
[26]
  viability, T/C: 99.1%
[31]
  viability, T/C: 83.8%
[32]
  viability, T/C: 85%
[33]
  viability, T/C: 94.5%
[34]
  viability, T/C: 61.1%
[10]
  viability, T/C: 98.2%
[27]
  viability, T/C: 92%
[35]
  viability, T/C: 84.9%
[36]
  viability, T/C: 96.6%
[37]
  viability, T/C: 68%
[38]
  viability, T/C: 28%
[15]
  viability, T/C: 93.3%
[28]
  viability, T/C: 87.4%
[39]
  viability, T/C: 85.1%
[40]
  viability, T/C: 85.7%
[41]
  viability, T/C: 53.9%
[42]
  viability, T/C: 5.85%
[20]
  viability, T/C: 43.2%
[29]
  viability, T/C: 45.6%
[43]
  viability, T/C: 49.7%
[44]
  viability, T/C: 25%
[45]
  viability, T/C: 12.3%
[46]
  viability, T/C: 0.16%
[25]
  viability, T/C: 0.13%
[30]
  viability, T/C: 0.14%
[47]
  viability, T/C: 0.13%
[48]
  viability, T/C: 0.13%
[49]
  viability, T/C: 0.29%
[50]
  viability, T/C: 0.16%

Source: PubChem BioAssay AID1963874 (Molecular Pharmacology Branch, DTP, NCI, 2024)
